Experiment [1] has as its target T1, Trifunctional purine biosynthetic protein adenosine-3 (Mus musculus, UniProt Q64737).
T1 sequence (Q64737 whole entry): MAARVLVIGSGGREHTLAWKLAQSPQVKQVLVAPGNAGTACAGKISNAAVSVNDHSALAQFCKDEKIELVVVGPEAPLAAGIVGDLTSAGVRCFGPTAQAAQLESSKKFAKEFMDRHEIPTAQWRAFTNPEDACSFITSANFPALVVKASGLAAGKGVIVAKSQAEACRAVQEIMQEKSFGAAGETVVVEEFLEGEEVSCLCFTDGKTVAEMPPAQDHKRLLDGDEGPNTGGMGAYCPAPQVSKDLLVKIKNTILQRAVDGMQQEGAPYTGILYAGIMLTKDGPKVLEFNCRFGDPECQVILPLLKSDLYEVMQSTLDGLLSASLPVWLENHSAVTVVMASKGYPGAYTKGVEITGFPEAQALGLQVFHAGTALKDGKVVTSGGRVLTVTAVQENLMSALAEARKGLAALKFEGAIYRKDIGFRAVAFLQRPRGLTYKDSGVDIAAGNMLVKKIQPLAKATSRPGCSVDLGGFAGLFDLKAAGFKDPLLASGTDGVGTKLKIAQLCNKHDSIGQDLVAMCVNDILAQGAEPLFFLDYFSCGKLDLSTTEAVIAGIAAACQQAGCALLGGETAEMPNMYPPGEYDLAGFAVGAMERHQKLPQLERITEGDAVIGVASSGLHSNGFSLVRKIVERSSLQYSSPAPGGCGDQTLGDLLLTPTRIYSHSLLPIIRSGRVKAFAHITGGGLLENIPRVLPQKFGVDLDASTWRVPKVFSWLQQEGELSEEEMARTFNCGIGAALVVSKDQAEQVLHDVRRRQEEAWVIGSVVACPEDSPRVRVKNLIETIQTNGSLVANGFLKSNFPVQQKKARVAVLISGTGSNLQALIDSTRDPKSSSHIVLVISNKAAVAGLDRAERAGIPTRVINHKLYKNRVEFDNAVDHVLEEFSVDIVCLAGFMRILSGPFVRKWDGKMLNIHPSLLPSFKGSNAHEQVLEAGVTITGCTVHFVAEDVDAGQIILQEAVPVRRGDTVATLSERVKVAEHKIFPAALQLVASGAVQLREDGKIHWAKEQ
The experiment can be described thus: Inhibition of GAR transformylase isolated from murine lymphoma cell line L5178Y. In kind it is cell-free.

Experiment [2] addresses T1, Trifunctional purine biosynthetic protein adenosine-3. The experiment can be described thus: Inhibition of GAR transformylase isolated from the murine lymphoma cell line L5178Y. It counts as cell-free.

In ChEMBL document CHEMBL1123931, “N10-substituted 5,8-dideazafolate inhibitors of glycinamide ribonucleotide transformylase” (J Med Chem, 1987) one finds Ki data, which are given here for 12 compounds.

Broadly, the Ki is the equilibrium dissociation constant of an inhibitor or competing ligand from its target. The low end stands for a stronger hold on the target, the high end for a looser hold on the target. With `CC(=O)N(Cc1ccc2nc(N)[nH]c(=O)c2c1)c1ccc(C(=O)NC(CCC(=O)O)C(=O)O)cc1` (configuration not stated), in experiment [1], the affinity, expressed as Ki, was 1.3 µM.

In the case of `Nc1nc2ccc(CN(CC(=O)O)c3ccc(C(=O)NC(CCC(=O)O)C(=O)O)cc3)cc2c(=O)[nH]1` (configuration not stated), the Ki in experiment [1] worked out at 5 µM.

In experiment [2], `CCN(Cc1ccc2nc(N)nc(O)c2c1)c1ccc(C(=O)NC(CCC(=O)O)C(=O)O)cc1` (configuration not stated) gave a Ki of 16 µM.

In turn, `Nc1nc2ccc(CN(Cc3cccc(F)c3)c3ccc(C(=O)NC(CCC(=O)O)C(=O)O)cc3)cc2c(=O)[nH]1` (configuration not stated) gave a Ki in experiment [1] of 18 µM.

Turning to `Nc1nc(O)c2cc(CN(CC(=O)c3ccccc3)c3ccc(C(=O)NC(CCC(=O)O)C(=O)O)cc3)ccc2n1` (configuration not stated), in experiment [1], the Ki worked out at 3 µM.

`Nc1nc2ccc(CN(Cc3c[nH]c(=O)[nH]c3=O)c3ccc(C(=O)NC(CCC(=O)O)C(=O)O)cc3)cc2c(=O)[nH]1` (configuration not stated): the inhibition constant Ki in experiment [1] came to 7 µM.

`N#CCCCN(Cc1ccc2nc(N)nc(O)c2c1)c1ccc(C(=O)NC(CCC(=O)O)C(=O)O)cc1` (configuration not stated): in experiment [1], the affinity corresponds to a Ki of 11 µM.

In experiment [1], `Nc1nc2ccc(CN(CC3CC3)c3ccc(C(=O)NC(CCC(=O)O)C(=O)O)cc3)cc2c(=O)[nH]1` (configuration not stated) gave a Ki of 8 µM.

Take `CC(C)N(Cc1ccc2nc(N)nc(O)c2c1)c1ccc(C(=O)NC(CCC(=O)O)C(=O)O)cc1` (configuration not stated): the affinity in experiment [1] corresponds to a Ki of 19 µM.

Compound `Nc1nc2ccc(CN(CCC(=O)O)c3ccc(C(=O)NC(CCC(=O)O)C(=O)O)cc3)cc2c(=O)[nH]1` (configuration not stated) came in with a Ki in experiment [1] of 32 µM.

With `C#CCN(Cc1ccc2[nH]c(N)nc(=O)c2c1)c1ccc(C(=O)NC(CCC(=O)O)C(=O)O)cc1` (configuration not stated), the Ki in experiment [1] stood at 6 µM.

The compound `Nc1nc(O)c2cc(CNc3ccc(C(=O)NC(CCC(=O)O)C(=O)O)cc3)ccc2n1` (configuration not stated) [DIDEAZAFOLATE] returned a Ki in experiment [1] of 2 µM.
